Laboratory results published in patent US9440982B2 (Eolas Therapeutics, Inc., priority 2012, dated 2016).
Read-outs that look alike come from different tables or passages of the source.

Key:
OX1 = molecular target: T1, OX1 (Homo sapiens, UniProt O43613); assay: Orexin receptor cell-based functional assay, [Ca2+]i by FLIPR, CHO-OX1 cells
T1 construct: expressed in transfected cells; host or cells: CHO (CHO-OX1, kept under selection antibiotic)
T1 sequence (O43613 1-425): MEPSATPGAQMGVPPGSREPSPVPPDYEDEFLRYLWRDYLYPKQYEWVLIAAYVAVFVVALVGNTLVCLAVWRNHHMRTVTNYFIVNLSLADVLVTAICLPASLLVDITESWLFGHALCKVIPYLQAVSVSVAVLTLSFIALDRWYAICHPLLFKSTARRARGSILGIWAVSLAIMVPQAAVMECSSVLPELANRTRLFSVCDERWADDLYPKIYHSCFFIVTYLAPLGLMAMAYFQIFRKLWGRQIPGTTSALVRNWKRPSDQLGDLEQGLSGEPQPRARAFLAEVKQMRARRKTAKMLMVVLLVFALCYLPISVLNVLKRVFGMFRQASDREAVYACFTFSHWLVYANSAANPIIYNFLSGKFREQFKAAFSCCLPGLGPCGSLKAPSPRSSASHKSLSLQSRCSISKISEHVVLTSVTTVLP
Summary of the method: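 Antagonist mode FLIPR calcium read in CHO-OX1 and CHO-OX2 lines. Test compounds, dosed 0.1 nM-10 μM, preincubated 30 min after 37° C dye loading with 2.5 mM probenecid (calcium4 for 30 min or calcium6 for 2 h).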

CYP3A4 = molecular target: T2, CYP3A4 (Homo sapiens, UniProt P08684); assay: Cytochrome P450 inhibition assay (midazolam hydroxylation); assay type: in vitro ADME; conditions: human, human liver microsomes, probe midazolam (hydroxylation to 1′-hydroxymidazolam), 10 μM test compound, midazolam at approximately its Km
T2 construct: pre-incubated with human liver microsomes and NADPH; from tissue; host or cells: human liver microsomes
Summary of the method: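 Percent inhibition of midazolam 1′-hydroxylation by 10 μM compound was measured, midazolam dosed at about Km. Time-dependent inhibition was probed by a 30 min preincubation of compound with human liver microsomes and NADPH ahead of substrate, compared against samples without preincubation.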

[1] = CHO-OX1 cells, [Ca2+]i by FLIPR, antagonist dose-range 0.1 nM-10 μM, EC90 of OXA, read-out: OX1
[2] = Table 6, racemate vs enantiomers, read-out: OX1 IC50

T2 sequence (P08684 whole entry): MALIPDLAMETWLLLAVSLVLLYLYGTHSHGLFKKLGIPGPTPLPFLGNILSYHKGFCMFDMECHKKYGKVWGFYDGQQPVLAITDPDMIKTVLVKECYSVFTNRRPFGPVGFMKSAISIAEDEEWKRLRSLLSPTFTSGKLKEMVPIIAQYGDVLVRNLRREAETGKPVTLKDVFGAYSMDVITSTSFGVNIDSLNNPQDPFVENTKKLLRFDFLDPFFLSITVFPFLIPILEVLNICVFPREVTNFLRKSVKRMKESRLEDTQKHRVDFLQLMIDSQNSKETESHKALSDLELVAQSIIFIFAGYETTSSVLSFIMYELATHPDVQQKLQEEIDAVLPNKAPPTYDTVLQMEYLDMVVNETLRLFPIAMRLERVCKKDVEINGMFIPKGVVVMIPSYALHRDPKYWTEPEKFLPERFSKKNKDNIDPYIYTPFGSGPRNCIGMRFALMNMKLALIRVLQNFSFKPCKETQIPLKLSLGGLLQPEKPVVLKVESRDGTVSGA

Row | IC50 (OX1; [1]) | inhibition at 10 µM (CYP3A4) | IC50 (OX1; [2]) | Compound
1 | 4 nM | 52% | – | Cc1nc(C(=O)N2CCC[C@@H](C)[C@H]2CNc2ncc(Cl)cn2)c(-c2ccc(F)cc2)s1 [Example A41, ((2S,3R)-2-(((5-Chloropyrimidin-2-yl)amino)methyl)-3-methylpiperidin-1-yl)(5-(4-fluorophenyl)-2-methylthiazol-4-yl)methanone]
2 | 670 nM | 55% | 670 nM | Cc1nc(C(=O)N2CCC[C@H](C)[C@@H]2CNc2ccc(C(F)(F)F)cn2)c(-c2ccc(F)cc2)s1 [Example A43, (5-(4-Fluorophenyl)-2-methylthiazol-4-yl)((2R,3S)-3-methyl-2-(((5-(trifluoromethyl)pyridin-2-yl)amino)methyl)piperidin-1-yl)methanone]
3 | 150 nM | 56% | – | Cc1ccc(-n2nccn2)c(C(=O)N2CCC[C@@H](C)[C@H]2CNc2ccc(F)cn2)c1 [Example A47, ((2S,3R)-2-(((5-Fluoropyridin-2-yl)amino)methyl)-3-methylpiperidin-1-yl)(5-methyl-2-(2H-1,2,3-triazol-2-yl)phenyl)methanone]
4 | 50 nM | 87% | – | Cc1ccc(NC[C@@H]2[C@H](C)CCCN2C(=O)c2cc(C)ccc2-c2ccccn2)nc1 [Example A59, ((2S,3R)-3-Methyl-2-(((5-methylpyridin-2-yl)amino)methyl)piperidin-1-yl)(5-methyl-2-(pyridin-2-yl)phenyl)methanone]
5 | 7 nM | 84% | – | Cc1ccc(-n2nccn2)c(C(=O)N2CCC[C@@H](C)[C@H]2CNc2ccc(Cl)cn2)c1 [Example A78, ((2S,3R)-2-(((5-Chloropyridin-2-yl)amino)methyl)-3-methylpiperidin-1-yl)(5-methyl-2-(2H-1,2,3-triazol-2-yl)phenyl)methanone]
6 | 8 nM | 68% | – | Cc1ccc(-n2nccn2)c(C(=O)N2CCC[C@@H](C)[C@H]2CNc2ncc(C(F)(F)F)cc2F)c1 [Example A82, ((2S,3R)-2-(((3-Fluoro-5-(trifluoromethyl)pyridin-2-yl)amino)methyl)-3-methylpiperidin-1-yl)(5-methyl-2-(2H-1,2,3-triazol-2-yl)phenyl)methanone]
7 | 2 nM | 9% | 2 nM | Cc1nc(C(=O)N2CCC[C@@H](C)[C@H]2CNc2ccc(C(F)(F)F)cn2)c(-c2ccc(F)cc2)s1 [Example A85, (5-(4-Fluorophenyl)-2-methylthiazol-4-yl)((2S,3R)-3-methyl-2-(((5-(trifluoromethyl)pyridin-2-yl)amino)methyl)piperidin-1-yl)methanone]
8 | 460 nM | 96% | – | Cc1ccc(-c2cnn(C)c2)c(C(=O)N2CCC[C@@H](C)[C@H]2CNc2ncccc2C(F)(F)F)c1 [Example A93, ((2S,3R)-3-Methyl-2-(((3-(trifluoromethyl)pyridin-2-yl)amino)methyl)piperidin-1-yl)(5-methyl-2-(1-methyl-1H-pyrazol-4-yl)phenyl)methanone]
9 | 4 nM | 91% | – | Cc1ccc(-n2cc(C)cn2)c(C(=O)N2CCC[C@@H](C)[C@H]2CNc2ccc(C(F)(F)F)cn2)c1 [Example A107, ((2S,3R)-3-Methyl-2-(((5-(trifluoromethyl)pyridin-2-yl)amino)methyl)piperidin-1-yl)(5-methyl-2-(4-methyl-1H-pyrazol-1-yl)phenyl)methanone]
10 | 16 nM | 95% | – | CCn1cc(-c2ccc(C)cc2C(=O)N2CCC[C@@H](C)[C@H]2CNc2ccc(C(F)(F)F)cn2)cn1 [Example A110, (2-(1-Ethyl-1H-pyrazol-4-yl)-5-methylphenyl)((2S,3R)-3-methyl-2-(((5-(trifluoromethyl)pyridin-2-yl)amino)methyl)piperidin-1-yl)methanone]

Second part, the compound before the results:

Row | Compound | IC50 (OX1; [1]) | inhibition at 10 µM (CYP3A4) | IC50 (OX1; [2])
11 | Cc1ccc(-c2ccnc(C)c2)c(C(=O)N2CCC[C@@H](C)[C@H]2CNc2nc3cc(Cl)ccc3o2)c1 [Example A37, ((2S,3R)-2-(((5-Chlorobenzo[d]oxazol-2-yl)amino)methyl)-3-methylpiperidin-1-yl)(5-methyl-2-(2-methylpyridin-4-yl)phenyl)methanone] | 4 nM | 96% | –
12 | Cc1ccc(-c2ccccn2)c(C(=O)N2CCC[C@@H](C)[C@H]2CNc2ccc(C#N)cn2)c1 [Example A60, 6-((((2S,3R)-3-Methyl-1-(5-methyl-2-(pyridin-2-yl)benzoyl)piperidin-2-yl)methyl)amino)nicotinonitrile] | 490 nM | 69% | –
13 | Cc1ccc(-n2nccn2)c(C(=O)N2CCC[C@@H](C)[C@H]2CNc2cccc(C)n2)c1 [Example A79, ((2S,3R)-3-Methyl-2-(((6-methylpyridin-2-yl)amino)methyl)piperidin-1-yl)(5-methyl-2-(2H-1,2,3-triazol-2-yl)phenyl)methanone] | 310 nM | 5% | –
14 | COc1cccc(NC[C@@H]2[C@H](C)CCCN2C(=O)c2cc(C)ccc2-n2nccn2)n1 [Example A80, ((2S,3R)-2-(((6-Methoxypyridin-2-yl)amino)methyl)-3-methylpiperidin-1-yl)(5-methyl-2-(2H-1,2,3-triazol-2-yl)phenyl)methanone] | 1870 nM | 28% | –
15 | Cc1ccc(-c2cnn(C)c2)c(C(=O)N2CCC[C@@H](C)[C@H]2CNc2cccc(C)n2)c1 [Example A87, ((2S,3R)-3-Methyl-2-(((6-methylpyridin-2-yl)amino)methyl)piperidin-1-yl)(5-methyl-2-(1-methyl-1H-pyrazol-4-yl)phenyl)methanone] | 220 nM | 73% | –
16 | Cc1ccc(-n2nccn2)c(C(=O)N2CCC[C@@H](C)[C@H]2CNc2ncccc2C(F)(F)F)c1 [Example A88, ((2S,3R)-3-Methyl-2-(((3-(trifluoromethyl)pyridin-2-yl)amino)methyl)piperidin-1-yl)(5-methyl-2-(2H-1,2,3-triazol-2-yl)phenyl)methanone] | 600 nM | 75% | –
17 | Cc1ccc(-c2cnn(C)c2)c(C(=O)N2CCC[C@@H](C)[C@H]2CNc2ncccc2C#N)c1 [Example A95, 2-((((2S,3R)-3-Methyl-1-(5-methyl-2-(1-methyl-1H-pyrazol-4-yl)benzoyl)piperidin-2-yl)methyl)amino)nicotinonitrile] | > 1000 nM | 88% | –
18 | COc1cccnc1NC[C@@H]1[C@H](C)CCCN1C(=O)c1cc(C)ccc1-n1nccn1 [Example A98, ((2S,3R)-2-(((3-Methoxypyridin-2-yl)amino)methyl)-3-methylpiperidin-1-yl)(5-methyl-2-(2H-1,2,3-triazol-2-yl)phenyl)methanone] | 270 nM | 48% | –
19 | Cc1ccc(-n2nccn2)c(C(=O)N2CCC[C@@H](C)[C@H]2CNc2ncccc2C)c1 [Example A99, ((2S,3R)-3-Methyl-2-(((3-methylpyridin-2-yl)amino)methyl)piperidin-1-yl)(5-methyl-2-(2H-1,2,3-triazol-2-yl)phenyl)methanone] | 340 nM | 52% | –
20 | Cc1ccc(-c2cnn(C)c2)c(C(=O)N2CCC[C@@H](C)[C@H]2CNc2ncccc2C)c1 [Example A100, ((2S,3R)-3-Methyl-2-(((3-methylpyridin-2-yl)amino)methyl)piperidin-1-yl)(5-methyl-2-(1-methyl-1H-pyrazol-4-yl)phenyl)methanone] | 1300 nM | 85% | –
